From PubChem BioAssay (NCI)
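A five-concentration, 48-hour dose response in 96-well plates underlies each endpoint, interpolated linearly between surrounding concentrations. TGI: concentration producing complete growth inhibition.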

Experiments:
Assay in all cases: DTP human tumour cell line panel, 48 h
A549 NSCLC = test system: A549 NSCLC
IGROV1 ovarian = test system: IGROV1 ovarian
MDA-N = test system: MDA-N
CCRF-CEM leukemia = test system: CCRF-CEM leukemia
HCT-15 colon = test system: HCT-15 colon
HCT-116 colon = test system: HCT-116 colon
TK-10 renal = test system: TK-10 renal
HL-60(TB) leukemia = test system: HL-60(TB) leukemia
HOP-92 NSCLC = test system: HOP-92 NSCLC
HOP-62 NSCLC = test system: HOP-62 NSCLC
SR leukemia = test system: SR leukemia
EKVX NSCLC = test system: EKVX NSCLC
HT29 colon = test system: HT29 colon
RXF 393 renal = test system: RXF 393 renal
SK-MEL-28 melanoma = test system: SK-MEL-28 melanoma
SF-295 CNS = test system: SF-295 CNS
MOLT-4 leukemia = test system: MOLT-4 leukemia
LOX IMVI melanoma = test system: LOX IMVI melanoma
SF-268 CNS = test system: SF-268 CNS
UACC-62 melanoma = test system: UACC-62 melanoma
SW-620 colon = test system: SW-620 colon
M14 melanoma = test system: M14 melanoma
SK-MEL-5 melanoma = test system: SK-MEL-5 melanoma
HS 578T breast = test system: HS 578T breast
MDA-MB-231 breast = test system: MDA-MB-231 breast
NCI-H460 lung = test system: NCI-H460 lung
ACHN renal = test system: ACHN renal
DU-145 prostate = test system: DU-145 prostate
U251 CNS = test system: U251 CNS
T-47D breast = test system: T-47D breast
NCI-H226 lung = test system: NCI-H226 lung
OVCAR-3 ovarian = test system: OVCAR-3 ovarian
SK-MEL-2 melanoma = test system: SK-MEL-2 melanoma
OVCAR-5 ovarian = test system: OVCAR-5 ovarian
OVCAR-8 ovarian = test system: OVCAR-8 ovarian
MALME-3M melanoma = test system: MALME-3M melanoma
A498 renal = test system: A498 renal
PC-3 prostate = test system: PC-3 prostate
KM12 colon = test system: KM12 colon
K-562 leukemia = test system: K-562 leukemia
UACC-257 melanoma = test system: UACC-257 melanoma
BT-549 breast = test system: BT-549 breast
SNB-19 CNS = test system: SNB-19 CNS
UO-31 renal = test system: UO-31 renal
NCI-H23 lung = test system: NCI-H23 lung
786-0 renal = test system: 786-0 renal
NCI/ADR-RES ovarian = test system: NCI/ADR-RES ovarian
SN12C renal = test system: SN12C renal
OVCAR-4 ovarian = test system: OVCAR-4 ovarian
MDA-MB-435 = test system: MDA-MB-435
CAKI-1 renal = test system: CAKI-1 renal
NCI-H522 lung = test system: NCI-H522 lung
SF-539 CNS = test system: SF-539 CNS
RPMI-8226 leukemia = test system: RPMI-8226 leukemia
HCC-2998 colon = test system: HCC-2998 colon
COLO 205 colon = test system: COLO 205 colon
MCF7 breast = test system: MCF7 breast
SNB-75 CNS = test system: SNB-75 CNS
SK-OV-3 ovarian = test system: SK-OV-3 ovarian

CC(CC(N)C(=O)O)C(=O)O (stereo not drawn)
TGI (A549 NSCLC): > 100 µM | TGI (IGROV1 ovarian): > 100 µM | TGI (MDA-N): > 100 µM | TGI (CCRF-CEM leukemia): > 100 µM | TGI (HCT-15 colon): > 100 µM | TGI (HCT-116 colon): > 100 µM | TGI (TK-10 renal): > 100 µM | TGI (HL-60(TB) leukemia): > 100 µM | TGI (HOP-92 NSCLC): > 100 µM | TGI (HOP-62 NSCLC): > 100 µM | TGI (SR leukemia): > 100 µM | TGI (EKVX NSCLC): > 100 µM | TGI (HT29 colon): > 100 µM | TGI (RXF 393 renal): > 100 µM | TGI (SK-MEL-28 melanoma): > 100 µM | TGI (SF-295 CNS): > 100 µM | TGI (MOLT-4 leukemia): > 100 µM | TGI (LOX IMVI melanoma): > 100 µM | TGI (SF-268 CNS): > 100 µM | TGI (UACC-62 melanoma): > 100 µM | TGI (SW-620 colon): > 100 µM | TGI (M14 melanoma): > 100 µM | TGI (SK-MEL-5 melanoma): > 100 µM | TGI (HS 578T breast): > 100 µM | TGI (MDA-MB-231 breast): > 100 µM | TGI (NCI-H460 lung): > 100 µM | TGI (ACHN renal): > 100 µM | TGI (DU-145 prostate): > 100 µM | TGI (U251 CNS): > 100 µM | TGI (T-47D breast): > 100 µM | TGI (NCI-H226 lung): > 100 µM | TGI (OVCAR-3 ovarian): > 100 µM | TGI (SK-MEL-2 melanoma): > 100 µM | TGI (OVCAR-5 ovarian): > 100 µM | TGI (OVCAR-8 ovarian): > 100 µM | TGI (MALME-3M melanoma): > 100 µM | TGI (A498 renal): > 100 µM | TGI (PC-3 prostate): > 100 µM | TGI (KM12 colon): > 100 µM | TGI (K-562 leukemia): > 100 µM | TGI (UACC-257 melanoma): > 100 µM | TGI (BT-549 breast): > 100 µM | TGI (SNB-19 CNS): > 100 µM | TGI (UO-31 renal): > 100 µM | TGI (NCI-H23 lung): > 100 µM | TGI (786-0 renal): > 100 µM | TGI (NCI/ADR-RES ovarian): > 100 µM | TGI (SN12C renal): > 100 µM | TGI (OVCAR-4 ovarian): > 100 µM | TGI (MDA-MB-435): > 100 µM | TGI (CAKI-1 renal): > 100 µM | TGI (NCI-H522 lung): > 100 µM

C=CC(O)(CBr)CCC(Br)C(=C)C (stereo not drawn)
TGI (A549 NSCLC): > 10 µM | TGI (IGROV1 ovarian): > 10 µM | TGI (MDA-N): > 10 µM | TGI (CCRF-CEM leukemia): > 10 µM | TGI (HCT-15 colon): > 10 µM | TGI (SF-539 CNS): > 10 µM | TGI (HCT-116 colon): > 10 µM | TGI (TK-10 renal): > 10 µM | TGI (HL-60(TB) leukemia): > 10 µM | TGI (HOP-62 NSCLC): > 10 µM | TGI (EKVX NSCLC): > 10 µM | TGI (HT29 colon): > 10 µM | TGI (RXF 393 renal): > 10 µM | TGI (SK-MEL-28 melanoma): > 10 µM | TGI (SF-295 CNS): > 10 µM | TGI (MOLT-4 leukemia): > 10 µM | TGI (LOX IMVI melanoma): > 10 µM | TGI (SF-268 CNS): > 10 µM | TGI (UACC-62 melanoma): > 10 µM | TGI (SW-620 colon): > 10 µM | TGI (M14 melanoma): > 10 µM | TGI (RPMI-8226 leukemia): > 10 µM | TGI (SK-MEL-5 melanoma): > 10 µM | TGI (HS 578T breast): > 10 µM | TGI (MDA-MB-231 breast): > 10 µM | TGI (NCI-H460 lung): > 10 µM | TGI (ACHN renal): > 10 µM | TGI (HCC-2998 colon): > 10 µM | TGI (DU-145 prostate): > 10 µM | TGI (U251 CNS): > 10 µM | TGI (T-47D breast): > 10 µM | TGI (NCI-H226 lung): > 10 µM | TGI (OVCAR-3 ovarian): > 10 µM | TGI (SK-MEL-2 melanoma): > 10 µM | TGI (OVCAR-5 ovarian): > 10 µM | TGI (OVCAR-8 ovarian): > 10 µM | TGI (MALME-3M melanoma): > 10 µM | TGI (A498 renal): > 10 µM | TGI (PC-3 prostate): > 10 µM | TGI (KM12 colon): > 10 µM | TGI (K-562 leukemia): > 10 µM | TGI (UACC-257 melanoma): > 10 µM | TGI (BT-549 breast): > 10 µM | TGI (SNB-19 CNS): > 10 µM | TGI (NCI-H23 lung): > 10 µM | TGI (COLO 205 colon): > 10 µM | TGI (786-0 renal): > 10 µM | TGI (MCF7 breast): > 10 µM | TGI (SNB-75 CNS): > 10 µM | TGI (NCI/ADR-RES ovarian): > 10 µM | TGI (SN12C renal): > 10 µM | TGI (OVCAR-4 ovarian): > 10 µM | TGI (MDA-MB-435): > 10 µM | TGI (SK-OV-3 ovarian): > 10 µM | TGI (CAKI-1 renal): > 10 µM | TGI (NCI-H522 lung): > 10 µM
